From US3976768A, “Fortimicin A” (Abbott Laboratories, priority 1973, dated 1976)
Values after ≈ are worked out from the molar mass of the structure shown. “Also recorded” adds a separate entry of the source.

Experiments:
[1] = tested on: Streptococcus faecalis ATCC 10541; assay: Antibacterial spectrum, agar dilution method (pH 8.0); format: cell-based; settings: Enterococcus faecalis, ATCC10541, read-out: Minimum inhibitory concentration
[2] = tested on: Escherichia coli KY 8332; assay: as above; format: cell-based; settings: KY8332, resistant to Kanamycin and Tobramycin, read-out: Minimum inhibitory concentration
[3] = tested on: Escherichia coli KY 8310; assay: as above; format: cell-based; settings: KY8310, resistant to Chloramphenicol, Streptomycin, Kanamycin, Gentamicin, Kanamycin B, Paromomycin, Tetracycline and Spectinomycin, read-out: Minimum inhibitory concentration
[4] = tested on: Escherichia coli Juhl KY 4286; assay: In vivo test on mice infected intraperitoneally with Escherichia coli, subcutaneous treatment; parameters: species or system mice infected with Escherichia coli Juhl KY 4286
Method: In this respect, in vivo tests have been conducted on mice infected intraperitoneally with Escherichia coli Juhl KY 4286. The thus infected mice were treated with various concentrations of Fortimicin A by subcutaneous […]. As a result the ED50 of Fortimicin A has been determined to be 6mg/kg. In view of the excellent antibacterial activity, the present substance, Fortimicin A, is considered to be useful in medical treatment as an antibacterial substance. Moreover, in view of the foregoing wide antibacterial spectrum, Fortimicin A may also be useful as a surface antibacterial agent.

[5] = tested on: Escherichia coli KY 8331; assay: Antibacterial spectrum, agar dilution method (pH 8.0); format: cell-based; settings: KY8331, resistant to Kanamycin, Ribostamycin, Neomycin, Paromomycin and Lividomycin, read-out: Minimum inhibitory concentration
[6] = tested on: Escherichia coli KY 8315; assay: as above; format: cell-based; settings: KY8315, resistant to Streptomycin, Kanamycin, Paromomycin and Neomycin, read-out: Minimum inhibitory concentration
[7] = tested on: bacteria of the genus Proteus; assay: Antibacterial activity against bacteria of the genus Proteus (in words); format: cell-based
[8] = tested on: Staphylococcus aureus; assay: Antibacterial activity against resistant Staphylococcus aureus (in words); format: cell-based; settings: Staphylococcus aureus resistant to various known antibiotics
[9] = tested on: Staphylococcus aureus KY 8953; assay: Antibacterial spectrum, agar dilution method (pH 8.0); format: cell-based; settings: KY8953, resistant to Streptomycin, Kanamycin, Paromomycin, Tetracycline, Neomycin, Kanamycin B and Erythromycin, read-out: Minimum inhibitory concentration
[10] = tested on: Escherichia coli ATCC 26; assay: as above; format: cell-based; settings: ATCC26, read-out: Minimum inhibitory concentration
[11] = tested on: Proteus vulgaris Abbott JJ, KY 4295; assay: as above; format: cell-based; settings: read-out: Minimum inhibitory concentration
[12] = tested on: Proteus mirabilis Finland 9 KY 4293; assay: as above; format: cell-based; settings: FINLAND9KY4293, read-out: Minimum inhibitory concentration
[13] = tested on: Proteus morganii Jenkins KY 4298; assay: as above; format: cell-based; settings: Morganella morganii, read-out: Minimum inhibitory concentration
[14] = tested on: Escherichia coli KY 8302; assay: as above; format: cell-based; settings: KY8302, resistant to Chloramphenicol, Streptomycin, Kanamycin, Paromomycin, Tetracycline and Spectinomycin, read-out: Minimum inhibitory concentration
[15] = Solubility of the free base; format: physicochemical
[16] = tested on: Bacillus cereus var. mycoides ATCC 9463; assay: microbe, parasite or virus in culture; format: cell-based; settings: ATCC9463, pH 8, read-out: Minimum inhibitory concentration
[17] = tested on: Bacillus cereus ATCC 9634; assay: Antibacterial spectrum, agar dilution method (pH 8.0); format: cell-based; settings: ATCC9634, read-out: Minimum inhibitory concentration
[18] = tested on: Proteus mirabilis No. 825 KY 4292; assay: as above; format: cell-based; settings: NO.825KY4292, read-out: Minimum inhibitory concentration
[19] = tested on: Staphylococcus aureus KY 8957; assay: as above; format: cell-based; settings: KY8957, resistant to Chloramphenicol, Streptomycin, Kanamycin B, Tetracycline and Paromomycin, read-out: Minimum inhibitory concentration
[20] = tested on: Bacillus subtilis No. 10707; assay: as above; format: cell-based; settings: read-out: Minimum inhibitory concentration
[21] = tested on: Klebsiella pneumoniae ATCC 10031; assay: as above; format: cell-based; settings: ATCC10031, read-out: Minimum inhibitory concentration
[22] = tested on: Pseudomonas aeruginosa BMH No. 1; assay: as above; format: cell-based; settings: BMHNO.1, read-out: Minimum inhibitory concentration
[23] = tested on: Escherichia coli KY 8327; assay: as above; format: cell-based; settings: KY8327, pH 8, read-out: Minimum inhibitory concentration
[24] = tested on: Pseudomonas aeruginos KY 8510; assay: as above; format: cell-based; settings: KY8510, pH 8, read-out: Minimum inhibitory concentration
[25] = tested on: Proteus vulgaris KY 4296; assay: as above; format: cell-based; settings: KY4296, resistant to nalidixic acid, read-out: Minimum inhibitory concentration
[26] = tested on: Staphylococcus aureus ATCC 6538P; assay: as above; format: cell-based; settings: ATCC6538P, read-out: Minimum inhibitory concentration
[27] = tested on: Escherichia coli KY 8314; assay: as above; format: cell-based; settings: KY8314, resistant to Streptomycin, read-out: Minimum inhibitory concentration
[28] = tested on: Gram-positive and Gram-negative bacteria; assay: Antibacterial activity against Gram-positive and Gram-negative bacteria (in words); format: cell-based
[29] = tested on: Staphylococcus aureus KY 8956; assay: Antibacterial spectrum, agar dilution method (pH 8.0); format: cell-based; settings: KY8956, resistant to Streptomycin, Paromomycin, Tetracycline, Erythromycin and Oleandomycin, read-out: Minimum inhibitory concentration
[30] = tested on: Staphylococcus aureus KY 8950; assay: as above; format: cell-based; settings: KY8950, resistant to Streptomycin, Tetracycline, Penicillin and sulfonamide, read-out: Minimum inhibitory concentration
[31] = tested on: Shigella sonnei ATCC 9290; assay: as above; format: cell-based; settings: ATCC9290, read-out: Minimum inhibitory concentration
[32] = tested on: Escherichia coli; assay: Antibacterial activity against resistant Escherichia coli (in words); format: cell-based; settings: Escherichia coli resistant to various known antibiotics
[33] = tested on: Salmonella typhosa ATCC 9992; assay: Antibacterial spectrum, agar dilution method (pH 8.0); format: cell-based; settings: Salmonella enterica, pH 8, read-out: Minimum inhibitory concentration
[34] = tested on: Proteus rettgeri Booth KY 4288; assay: as above; format: cell-based; settings: Providencia rettgeri, read-out: Minimum inhibitory concentration
[35] = tested on: Proteus mirabilis No. 39 KY 4290; assay: as above; format: cell-based; settings: NO.39KY4290, read-out: Minimum inhibitory concentration
[36] = tested on: Proteus rettgeri Hambrook KY 4289; assay: as above; format: cell-based; settings: Providencia rettgeri, read-out: Minimum inhibitory concentration
[37] = tested on: Staphylococcus aureus KY 8942; assay: as above; format: cell-based; settings: KY8942, resistant to Kanamycin, Paramomycin, Streptomycin, Gentamicin and Nebramycin, read-out: Minimum inhibitory concentration
[38] = tested on: Proteus vulgaris ATCC 6897; assay: as above; format: cell-based; settings: ATCC6897, read-out: Minimum inhibitory concentration

Molecule COC1C(O)C(N)C(OC2OC(C(C)N)CCC2N)C(O)C1N(C)C(=O)CN (centres unmarked) [Fortimicin A] has an MIC [1] of 10 µg/mL (≈ 24.7 µM), an MIC [2] of 0.3 µg/mL (≈ 0.74 µM) and an MIC [3] of 0.13 µg/mL (≈ 0.321 µM). For the same molecule, the ED50 ([4]; Escherichia coli, JUHLKY4286, sc) was 6 mg/kg, the Therapeutic effects ([4]; therapy of infectious diseases caused by the tested bacteria) was “remarkable therapeutic effects” and the MIC [5] was 0.3 µg/mL (≈ 0.74 µM). For the same molecule, the MIC [6] was 0.13 µg/mL (≈ 0.321 µM), the Antibacterial activity [7] was “satisfactory antibacterial activity” and the Antibacterial activity [8] was “strong antibacterial activity”. The MIC [9] was 1.3 µg/mL (≈ 3.21 µM), the MIC [10] was 0.16 µg/mL (≈ 0.395 µM) and the MIC [11] was 0.8 µg/mL (≈ 1.97 µM). It also gave an MIC [12] of 0.8 µg/mL (≈ 1.97 µM), an MIC [13] of 1.6 µg/mL (≈ 3.95 µM) and an MIC [14] of 0.26 µg/mL (≈ 0.641 µM). The “Solubility in organic solvents” value ([15]; chloroform, benzene, ethyl acetate, butyl acetate, ethyl ether, butanol, petroleum ether, n-hexane, etc., free base) was “insoluble”, the “Solubility in ethanol and acetone” value ([15]; ethanol and acetone, free base) was “slightly soluble” and the Solubility in methanol ([15]; methanol, free base) was “soluble”. For the same molecule, the “Solubility in the ordinary organic solvents” value ([15]; ordinary organic solvents) was “poorly soluble”, the Solubility in water ([15]; water, free base) was “soluble; also recorded: very soluble” and the MIC [16] was 0.6 µg/mL (≈ 1.48 µM). For the same molecule, the MIC [17] was 0.6 µg/mL (≈ 1.48 µM), the MIC [18] was 0.41 µg/mL (≈ 1.01 µM) and the MIC [19] was 0.32 µg/mL (≈ 0.789 µM). It also gave an MIC [20] of 0.02 µg/mL (≈ 0.0493 µM), an MIC [21] of 0.08 µg/mL (≈ 0.197 µM) and an MIC [22] of 5 µg/mL (≈ 12.3 µM). For the same molecule, the MIC [23] was 0.13 µg/mL (≈ 0.321 µM), the MIC [24] was 5 µg/mL (≈ 12.3 µM) and the MIC [25] was 0.41 µg/mL (≈ 1.01 µM). For the same molecule, the MIC [26] was 0.04 µg/mL (≈ 0.0986 µM), the MIC [27] was 0.26 µg/mL (≈ 0.641 µM) and the Antibacterial activity [28] was “active upon Gram-positive and Gram-negative bacteria; also recorded: wide range of activity”. For the same molecule, the MIC [29] was 0.32 µg/mL (≈ 0.789 µM), the MIC [30] was 1.3 µg/mL (≈ 3.21 µM) and the MIC [31] was 0.3 µg/mL (≈ 0.74 µM). For the same molecule, the Antibacterial activity [32] was “strong antibacterial activity”, the MIC [33] was 0.08 µg/mL (≈ 0.197 µM) and the MIC [34] was 0.8 µg/mL (≈ 1.97 µM). It also gave an MIC [35] of 0.8 µg/mL (≈ 1.97 µM), an MIC [36] of 0.41 µg/mL (≈ 1.01 µM) and an MIC [37] of 10 µg/mL (≈ 24.7 µM). It also gave an MIC [38] of 0.16 µg/mL (≈ 0.395 µM).
With CNC1C(O)C(OC2OC(C(C)N)CCC2N)C(N)C(O)C1OC (centres unmarked) [Fortimicin B] the Antibacterial activity [28] was “activity against Gram-positive and Gram-negative bacteria”.
